Source: patent publication US20240101548A1, “HYDROXAMATE COMPOUND, PREPARATION METHOD THEREFOR AND APPLICATION THEREOF” (SHENZHEN CHIPSCREEN BIOSCIENCES CO., LTD., priority 2020, published 2024)

Assays:
[1] = tested on: IL-2-induced JAK1/JAK3 signal pathway; assay: IL-2-induced proliferation of KHYG-1 cells (JAK1/JAK3 signal); type: cell-based, human; conditions: Homo sapiens; KHYG-1 cell proliferation, IL-2 10 ng/mL, 72 hours; read-out: Inhibition activity IC50 on IL-2-induced JAK1/JAK3 signal pathway
Source text: The main physiological function of cytokine IL-2 is to stimulate and maintain the proliferation and differentiation of T cells. Generally, IL-2 dependent T cells cannot survive in in-vitro culture for a long time, but the addition of IL-2 can make them continue to proliferate. The signal pathway induced by IL-2 coupling with its receptor is mediated by JAK1/JAK3-STAT5, so the inhibitor of JAK1 and/or JAK3 can inhibit the proliferation of IL-2 dependent cells.
Human natural killer cell lymphoma cell line KHYG-1 was commercially available from Health Science Research Resources Bank (HSRRB), and relevant culture conditions referred to those from HSRRB.
The inhibition rate of the tested compound on IL-2-induced cell proliferation was calculated using Microsoft Excel.
After culture at 37° C. and 5% CO2 for 72 hours, alamarBlue™ Cell Viability Reagent was added to each well following the instructions.
(§1) The well in which neither compound nor cytokine was added was designated as 0% control well, and the fluorescence value in the wells in which the final concentration of compound was 0 was designated as 100% control. The inhibition activity C50 of the tested compound on JAK1/JAK3 could be calculated from the inhibition rate of the tested compound on IL-2-induced cell proliferation at different doses.

[2] = tested on: EPO-induced JAK2 signal pathway; assay: EPO-induced proliferation of UT-7 cells (JAK2 signal); type: cell-based, human; conditions: Homo sapiens, UT7; UT-7 cell proliferation, EPO 10 ng/mL, 72 hours; read-out: Inhibition activity IC50 on EPO-induced JAK2 signal pathway
Experimental: The cytokine EPO, i.e. erythropoietin, can promote the proliferation and division of erythroid progenitor cells, and the signal pathway induced by EPO coupling with its receptor is mediated by JAK2-STAT5.
Human promegakaryocytic leukemia cell line UT-7 was commercially available from Cell Resource Center, Institute of Basic Medicine, Chinese Academy of Medical Sciences. The culture medium was RPIM1640 containing 10% FBS, and EPO was added for a final concentration of 10 ng/mL.
The inhibition rate of the tested compound on EPO-induced cell proliferation was calculated using Microsoft Excel.
UT-7 cell line was inoculated in 96-well plate with flat bottom at 15000 cells per well, each well was added with 10 ng/mL of human recombinant EPO (Human EPO PEPROTECH 100-64-10UG), along with tested compound respectively for a final concentration of 0, 100, 1000 or 10000 nM. After culture at 37° C. and 5% CO2 for 72 hours, alamarBlue™ Cell Viability Reagent was added to each well following the instructions. After incubation at 37° C. for color reaction, the fluorescence value at Ex530/Em590 was detected using Tecan Spark™ 10M multimode microplate reader.
as §1, with “[…]” for “0%”, “100” for “100%”, “[…] ofthe” for “C50 of the”, “JAK2” for “JAK1/JAK3”, “ofthe” for “of the”, “EPO-induced” for “IL-2-induced”

Compound	IC50 [1]	IC50 [2]
CONC(=O)c1cnc(Nc2ccc(F)cc2)cc1Nc1ccc(C2CC2)cc1N(C)S(C)(=O)=O [Example 15, 4-((4-cyclopropyl-2-(N-methylmethanesulfonamido)phenyl)amino)-6-((4-fluorophenyl)amino)-N-methoxy nicotinamide]	> 10 µM	> 10 µM
CONC(=O)c1cnc(Nc2cccc(F)n2)cc1Nc1ccccc1P(C)(C)=O [Example 74, 4-((2-(dimethylphosphoryl)phenyl)amino)-6-((6-fluoropyridin-2-yl)amino)-N-methoxy nicotinamide]	> 10 µM	> 10 µM
CONC(=O)c1cnc(NC(=O)C2CC2)cc1Nc1ccccc1P(C)(C)=O [Example 73, 6-(cyclopropylcarboxamido)-4-((2-(dimethylphosphoryl)phenyl)amino)-N-methoxy nicotinamide]	> 10 µM	> 10 µM
CONC(=O)c1cnc(Nc2cccc(F)n2)cc1Nc1cccc(-c2cnn(C)c2)c1N(C)S(C)(=O)=O [Example 88, 6-((6-fluoropyridin-2-yl)amino)-N-methoxy-4-((3-(1-methyl-1H-pyrazol-4-yl)-2-(N-methylmethanesulfonamido)phenyl)amino)nicotinamide]	> 10 µM	> 10 µM
CCONC(=O)c1cnc(Nc2ccc(CO)cn2)cc1Nc1ccc(C2CC2)cc1N(C)S(C)(=O)=O [Example 122, 4-((4-cyclopropyl-2-(N-methylmethanesulfonamido)phenyl)amino)-N-ethoxy-6-((5-(hydroxymethyl)pyridin-2-yl)amino)nicotinamide]	> 10 µM	> 10 µM
CONC(=O)c1cnc(Nc2cccc(F)n2)cc1Nc1cccc(C2CC2)c1N(C)S(C)(=O)=O [Example 86]	> 10 µM	> 10 µM
CCONC(=O)c1cnc(Nc2ncc(C)s2)cc1Nc1ccc(OC)cc1N(C)S(C)(=O)=O [Example 172, N-ethoxy-4-((4-methoxy-2-(N-methylmethanesulfonamido)phenyl)amino)-6-(5-methylthiazol-2-ylamino)nicotinamide]	> 10 µM	> 10 µM
C#Cc1ccc(Nc2cc(Nc3ncccn3)ncc2C(=O)NOCC)c(N(C)S(C)(=O)=O)c1 [Example 163, N-ethoxy-4-((4-ethynyl-2-(N-methylmethanesulfonamido)phenyl)amino)-6-(pyrimidin-2-ylamino)nicotinamide]	> 10 µM	> 10 µM
CONC(=O)c1cnc(NC(=O)C2CC2)cc1Nc1cccc(C2CC2)c1N(C)S(C)(=O)=O [Example 85, 6-(cyclopropylcarboxamido)-4-((3-cyclopropyl-2-(N-methylmethanesulfonamido)phenyl)amino)-N-methoxy nicotinamide]	> 10 µM	> 10 µM
CONC(=O)c1cnc(NC(=O)C2CC2)cc1Nc1cccc(C)c1N(C)S(C)(=O)=O [Example 33, 6-(cyclopropylcarboxamido)-N-methoxy-4-((3-methyl-2-(N-methylmethanesulfonamido)phenyl)amino)nicotinamide]	> 10 µM	> 10 µM
CCONC(=O)c1cnc(NC(=O)C2CC2)cc1Nc1cc(C)c(C2CC2)cc1N(C)S(C)(=O)=O [Example 120, 6-(cyclopropylcarboxamido)-4-((4-cyclopropyl-5-methyl-2-(N-methylmethanesulfonamido)phenyl)amino)-N-ethoxy nicotinamide]	> 10 µM	> 10 µM
CONC(=O)c1cnc(Nc2ccc(F)cn2)cc1Nc1cccc(C(F)(F)F)c1N(C)S(C)(=O)=O [Example 84, 6-((5-fluoropyridin-2-yl)amino)-N-methoxy-4-((2-(N-methylmethanesulfonamido)-3-(trifluoromethyl)phenyl)amino)nicotinamide]	> 10 µM	> 10 µM
CONC(=O)c1cnc(NC(=O)C2CC2)cc1Nc1cccc(-c2nc3ccccc3n2C)c1OC [Example 3, 6-(cyclopropylcarboxamido)-N-methoxy-4-((2-methoxy-3-(1-methyl-1H-benzo[d]imidazol-2-yl)phenyl)amino)nicotinamide]	> 10 µM	> 10 µM
CONC(=O)c1cnc(NC(=O)C2CC2)cc1Nc1ccc(OC)nc1N(C)S(C)(=O)=O [Example 7, 6-(cyclopropylcarboxamido)-N-methoxy-4-((6-methoxy-2-(N-methylmethanesulfonamido)pyridin-3-yl)amino)nicotinamide]	> 10 µM	> 10 µM
CONC(=O)c1cnc(NC(=O)C2CC2)cc1Nc1ccc(OC)cc1N(C)S(C)(=O)=O [Example 6, 6-(cyclopropylcarboxamido)-N-methoxy-4-((4-methoxy-2-(N-methylmethanesulfonamido)phenyl)amino)nicotinamide]	> 10 µM	> 10 µM
CONC(=O)c1cnc(Nc2ccc(F)cn2)cc1Nc1cnccc1N(C)S(C)(=O)=O [Example 58, 6-((5-fluoropyridin-2-yl)amino)-N-methoxy-4-((4-(N-methylmethanesulfonamido)pyridin-3-yl)amino)nicotinamide]	> 10 µM	> 10 µM
CONC(=O)c1cnc(Nc2ccc(C)cn2)cc1Nc1ccc(C)cc1N(C)S(C)(=O)=O [Example 107, N-methoxy-4-((4-methyl-2-(N-methylmethanesulfonamido)phenyl)amino)-6-((5-methylpyridin-2-yl)amino)nicotinamide]	> 10 µM	> 10 µM
CONC(=O)c1cnc(NC(=O)[C@H]2CC2(C)C)cc1Nc1ccccc1N(C)S(C)(=O)=O [Example 105, (S)-6-(2,2-dimethylcyclopropyl-1-carboxamido)-N-methoxy-4-((2-(N-methylmethanesulfonamido)phenyl)amino)nicotinamide]	> 10 µM	> 10 µM
CCONC(=O)c1cnc(NC(=O)C2CC2)cc1Nc1cccc(-c2cnn(C)c2)c1OC [Example 26, 6-(cyclopropylcarboxamido)-N-ethoxy-4-((2-methoxy-3-(1-methyl-1H-pyrazol-4-yl)phenyl)amino)nicotinamide]	> 10 µM	> 10 µM
CCONC(=O)c1cnc(Nc2cc(C)nc(C)n2)cc1Nc1cc(C)c(C2CC2)cc1N(C)S(C)(=O)=O [Example 121]	> 10 µM	> 10 µM
CONC(=O)c1cnc(NC(=O)C2CC2)cc1Nc1cccc(-c2cnn(C)c2)c1OC(F)F [Example 54, 6-(cyclopropylcarboxamido)-4-((2-(difluoromethoxy)-3-(1-methyl-1H-pyrazol-4-yl)phenyl)amino)-N-methoxy nicotinamide]	> 10 µM	> 10 µM
CONC(=O)c1cnc(Nc2ccc(F)cn2)cc1Nc1cccc(-c2cnn(C)c2)c1C#N [Example 49, 4-((2-cyano-3-(1-methyl-1H-pyrazol-4-yl)phenyl)amino)-6-((5-fluoropyridin-2-yl)amino)-N-methoxy nicotinamide]	> 10 µM	> 10 µM
CCONC(=O)c1cnc(Nc2nc(C)cs2)cc1Nc1ccc(C)cc1N(C)S(C)(=O)=O [Example 165, N-ethoxy-4-((4-methyl-2-(N-methylmethanesulfonamido)phenyl)amino)-6-((4-methylthiazol-2-yl)amino)nicotinamide]	> 10 µM	> 10 µM
C#Cc1ccc(Nc2cc(Nc3cccc(F)n3)ncc2C(=O)NOC(C)C)c(N(C)S(C)(=O)=O)c1 [Example 24]	> 10 µM	> 10 µM
CCONC(=O)c1cnc(NC(=O)C2CC2)cc1Nc1cc(Cl)c(C2CC2)cc1N(C)S(C)(=O)=O [Example 150, 4-((5-chloro-4-cyclopropyl-2-(N-methylmethanesulfonamido)phenyl)amino)-6-(cyclopropylcarboxamido)-N-ethoxy nicotinamide]	> 10 µM	> 10 µM
CONC(=O)c1cnc(Nc2cccc(F)n2)cc1Nc1ccccc1S(=O)(=O)N(C)C [Example 37, 4-((2-(N,N-dimethylaminosulfonyl)phenyl)amino)-6-((6-fluoropyridin-2-yl)amino)-N-methoxy nicotinamide]	> 10 µM	> 10 µM
